Measured values taken from patent US11851449B2, “Heterocyclic amide compounds having an RORvt inhibitory action” (TAKEDA PHARMACEUTICAL COMPANY LIMITED, priority 2013, dated 2023).

Experiments:
RORγt [1] = molecular target: T1, RORγt (Homo sapiens, UniProt P51449); assay: RORγt binding test (TR-FRET, fluorescent-labeled cholesterol); conditions: read-out: binding inhibitory rate (%) of fluorescent-labeled cholesterol to RORγt at test compound 1 μM
T1 sequence (P51449 1-497 isoform P51449-2): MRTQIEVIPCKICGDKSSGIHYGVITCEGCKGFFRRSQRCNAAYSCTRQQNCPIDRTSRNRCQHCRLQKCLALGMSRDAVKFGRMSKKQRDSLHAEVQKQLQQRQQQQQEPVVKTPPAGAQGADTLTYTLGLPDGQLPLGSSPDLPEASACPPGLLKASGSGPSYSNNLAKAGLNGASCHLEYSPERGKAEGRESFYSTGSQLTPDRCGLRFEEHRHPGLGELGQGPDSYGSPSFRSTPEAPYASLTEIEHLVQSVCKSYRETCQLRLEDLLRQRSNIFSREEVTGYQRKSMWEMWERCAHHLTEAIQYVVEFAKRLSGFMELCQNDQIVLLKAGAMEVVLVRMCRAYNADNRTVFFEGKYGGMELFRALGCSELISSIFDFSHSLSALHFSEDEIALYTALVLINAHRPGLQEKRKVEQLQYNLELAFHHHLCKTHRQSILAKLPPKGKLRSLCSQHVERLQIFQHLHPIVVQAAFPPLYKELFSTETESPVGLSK
Protocol: The binding activity of the test compound to RORγt was measured by a time resolved fluorescence resonance energy transfer method (TR-FRET) utilizing histidine-tagged RORγt, fluorescent-labeled cholesterol (BODIPY-cholesterol, AVIVA), and terbium-labeled anti-histidine tag antibody (Invitrogen). First, a test compound diluted with an assay buffer (20 mM Tris-HCl (pH 7.5), 100 mM NaCl, 1 mM DTT, 0.1% BSA) was added to a 384 well plate by 3 μL. Then, RORγt diluted with an assay buffer to 240 nM was added by 3 μL, after which fluorescent-labeled cholesterol diluted with the assay buffer to 12 μM was added by 3 μL, and the mixture was stood at room temperature for 20 min. Thereafter, a terbium-labeled anti-histidine tag antibody diluted with the assay buffer to 8 nM was added by 3 μL. The mixture was stood at room temperature for 20 min, and fluorescence intensity (excitation wavelength 320 nm, fluorescence wavelength 520 nm, delay time 100 microseconds) was measured by Envision (PerkinElmer).

RORγt [2] = molecular target: T1, RORγt; assay: Cofactor recruitment test (Alpha Screen, biotinylated SRC-1 peptide); assay type: biochemical; conditions: read-out: signal value inhibitory rate (%) at test compound 1 μM
Protocol: Cofactor Recruitment Test
Cofactor recruitment test was performed by Alpha Screen (Histidine Detection Kit, PerkinElmer) method. First, a test compound was diluted with an assay buffer (50 mM Tris-HCl (pH 7.5), 50 mM KCl, 1 mM DTT, 0.1% BSA) and added to a 384 well plate by 5 μL. […] The mixture was stood in a dark place for 1 hr, and the signal value was measured by Envision (PerkinElmer).

RORγt [3] = molecular target: T1, RORγt; assay: Jurkat reporter test (human IL-17 ROR response element luciferase reporter); assay type: cell-based; conditions: Jurkat, read-out: luminescence level inhibitory rate (%) at test compound 3 μM
Protocol: The Jurkat cells used for the reporter test were cultured in a culture medium (RPMI (Invitrogen), 10% FCS (AusGeneX), 100 U/mL penicillin, 100 μg/mL streptomycin). On the day of the test, 4×10^7 cells were recovered by a centrifugal operation (1000 rpm, 5 min.) and suspended in PBS (phosphate buffered saline) (Invitrogen). Thereafter, the cells were recovered again by a centrifugal operation, and suspended in 2 mL of R buffer (NEON transfection kit, Invitrogen). […] Gene transfer was performed by Electroporation apparatus (NEON, Invitrogen) under the conditions of pulse voltage 1350 V, interval 10 milliseconds, number of times 3. The cells after gene transfer were suspended in 40 mL of a reaction medium (RPMI, 10% Lipid reduced FCS (HyClone), 10 mM HEPES (pH 7.5), 100 U/mL penicillin, 100 μg/mL streptomycin, 5 μM lovastatin), and plated in a 96 well plate by 90 μL. A test compound diluted with the reaction medium was added by 10 μL, and the cells were cultured overnight in an incubator. Bright-Glo (Promega) was added by 100 μL, and the mixture was stirred at room temperature for 10 min, and the luminescence level was measured by Envision (PerkinElmer).

## COc1ccc(C(NC(=O)Cc2cnn(C)c2)C(=O)Nc2ccc([Si](C)(C)C)cc2)cc1 (stereo not drawn) [Example 20, 2-(4-methoxyphenyl)-2-(((1-methyl-1H-pyrazol-4-yl)acetyl)amino)-N-(4-(trimethylsilyl)phenyl)acetamide]
RORγt [1]
  inhibition at 1 µM: 101%
RORγt [2]
  inhibition at 1 µM: 73%
RORγt [3]
  inhibition at 3 µM: 91.8%

## COc1ccc(C(C(=O)Nc2cc(F)c([Si](C)(C)C)cc2F)N(C)C(=O)c2cc(O)no2)cc1 (stereo not drawn) [Example 21, N-(2-((2,5-difluoro-4-(trimethylsilyl)phenyl)amino)-1-(4-methoxyphenyl)-2-oxoethyl)-3-hydroxy-N-methyl-1,2-oxazole-5-carboxamide]
RORγt [1]
  inhibition at 1 µM: 101%
RORγt [2]
  inhibition at 1 µM: 93.1%
RORγt [3]
  inhibition at 3 µM: 98.3%

## COCc1ccc(C(NC(=O)Cc2cnn(C)c2)C(=O)Nc2ccc([Si](C)(C)C)cc2)cc1 (stereo not drawn) [Example 22, 2-(4-(methoxymethyl)phenyl)-2-(((1-methyl-1H-pyrazol-4-yl)acetyl)amino)-N-(4-(trimethylsilyl)phenyl)acetamide]
RORγt [1]
  inhibition at 1 µM: 101%
RORγt [2]
  inhibition at 1 µM: 90.6%
RORγt [3]
  inhibition at 3 µM: 97.2%

## COc1ccc([C@H](C(=O)Nc2cc(F)c([Si](C)(C)C)cc2F)N(C)C(=O)c2cc(O)no2)cc1 [Example 25, N-((1R)-2-((2,5-difluoro-4-(trimethylsilyl)phenyl)amino)-1-(4-methoxyphenyl)-2-oxoethyl)-3-hydroxy-N-methyl-1,2-oxazole-5-carboxamide]
RORγt [1]
  inhibition at 1 µM: 102%
RORγt [2]
  inhibition at 1 µM: 95.7%
RORγt [3]
  inhibition at 3 µM: 100%

## COCc1ccc(C(NC(=O)C2CNC(=O)C2)C(=O)Nc2ccc([Si](C)(C)C)c(C#N)c2)cc1 (stereo not drawn) [Example 26, N-(2-((3-cyano-4-(trimethylsilyl)phenyl)amino)-1-(4-(methoxymethyl)phenyl)-2-oxoethyl)-5-oxopyrrolidine-3-carboxamide]
RORγt [1]
  inhibition at 1 µM: 103%
RORγt [2]
  inhibition at 1 µM: 99.5%
RORγt [3]
  inhibition at 3 µM: 97.6%

## COc1ccc(C(NC(=O)C2CNC(=O)C2)C(=O)Nc2ccc([Si](C)(C)C)c(C#N)c2)cc1 (stereo not drawn) [Example 27, N-(2-((3-cyano-4-(trimethylsilyl)phenyl)amino)-1-(4-methoxyphenyl)-2-oxoethyl)-5-oxopyrrolidine-3-carboxamide]
RORγt [1]
  inhibition at 1 µM: 103%
RORγt [2]
  inhibition at 1 µM: 92.5%
RORγt [3]
  inhibition at 3 µM: 96%

## COc1ccc(C(NC(=O)C2CNC(=O)C2)C(=O)Nc2ccc([Si](C)(C)C)c(F)c2)cc1 (stereo not drawn) [Example 28, N-(2-((3-fluoro-4-(trimethylsilyl)phenyl)amino)-1-(4-methoxyphenyl)-2-oxoethyl)-5-oxopyrrolidine-3-carboxamide]
RORγt [1]
  inhibition at 1 µM: 100%
RORγt [2]
  inhibition at 1 µM: 88%
RORγt [3]
  inhibition at 3 µM: 98%

## COc1ccc(C(NC(=O)N2CCC(O)C2)C(=O)Nc2ccc([Si](C)(C)C)c(F)c2)cc1 (stereo not drawn) [Example 29, N-(2-((3-fluoro-4-(trimethylsilyl)phenyl)amino)-1-(4-methoxyphenyl)-2-oxoethyl)-3-hydroxypyrrolidine-1-carboxamide]
RORγt [1]
  inhibition at 1 µM: 101%
RORγt [2]
  inhibition at 1 µM: 92.3%
RORγt [3]
  inhibition at 3 µM: 99.2%

## COc1ccc(C(NC(=O)N2CC(O)C2)C(=O)Nc2ccc([Si](C)(C)C)c(F)c2)cc1 (stereo not drawn) [Example 30, N-(2-((3-fluoro-4-(trimethylsilyl)phenyl)amino)-1-(4-methoxyphenyl)-2-oxoethyl)-3-hydroxyazetidine-1-carboxamide]
RORγt [1]
  inhibition at 1 µM: 98.5%
RORγt [2]
  inhibition at 1 µM: 95.1%
RORγt [3]
  inhibition at 3 µM: 99.8%

## COCc1ccc(C(C(=O)Nc2ccc([Si](C)(C)C)c(F)c2)N(C)C(=O)c2cc(O)no2)cc1 (stereo not drawn) [Example 31, N-(2-((3-fluoro-4-(trimethylsilyl)phenyl)amino)-1-(4-(methoxymethyl)phenyl)-2-oxoethyl)-3-hydroxy-N-methyl-1,2-oxazole-5-carboxamide]
RORγt [1]
  inhibition at 1 µM: 99.5%
RORγt [2]
  inhibition at 1 µM: 98.3%
RORγt [3]
  inhibition at 3 µM: 99.5%

## COCc1ccc(C(NC(=O)C2CNC(=O)C2)C(=O)Nc2ccc([Si](C)(C)C)c(F)c2)cc1 (stereo not drawn) [Example 32, N-(2-((3-fluoro-4-(trimethylsilyl)phenyl)amino)-1-(4-(methoxymethyl)phenyl)-2-oxoethyl)-5-oxopyrrolidine-3-carboxamide]
RORγt [1]
  inhibition at 1 µM: 95.2%
RORγt [2]
  inhibition at 1 µM: 95.6%
RORγt [3]
  inhibition at 3 µM: 99.1%

## COCc1ccc(C(NC(=O)N2CCC(O)C2)C(=O)Nc2ccc([Si](C)(C)C)c(F)c2)cc1 (stereo not drawn) [Example 33, N-(2-((3-fluoro-4-(trimethylsilyl)phenyl)amino)-1-(4-(methoxymethyl)phenyl)-2-oxoethyl)-3-hydroxypyrrolidine-1-carboxamide]
RORγt [1]
  inhibition at 1 µM: 101%
RORγt [2]
  inhibition at 1 µM: 97.7%
RORγt [3]
  inhibition at 3 µM: 98.4%

## COCc1ccc(C(NC(=O)N2CC(O)C2)C(=O)Nc2ccc([Si](C)(C)C)c(F)c2)cc1 (stereo not drawn) [Example 34, N-(2-((3-fluoro-4-(trimethylsilyl)phenyl)amino)-1-(4-(methoxymethyl)phenyl)-2-oxoethyl)-3-hydroxyazetidine-1-carboxamide]
RORγt [1]
  inhibition at 1 µM: 101%
RORγt [2]
  inhibition at 1 µM: 98.9%
RORγt [3]
  inhibition at 3 µM: 99.2%

## COCc1ccc(C(NC(=O)Cc2nnc(C)o2)C(=O)Nc2ccc([Si](C)(C)C)c(F)c2)cc1 (stereo not drawn) [Example 35, N-(3-fluoro-4-(trimethylsilyl)phenyl)-2-(4-(methoxymethyl)phenyl)-2-(((5-methyl-1,3,4-oxadiazol-2-yl)acetyl)amino)acetamide]
RORγt [1]
  inhibition at 1 µM: 103%
RORγt [2]
  inhibition at 1 µM: 96.6%
RORγt [3]
  inhibition at 3 µM: 101%

## COCc1ccc(C(NC(=O)Cn2cnccc2=O)C(=O)Nc2ccc([Si](C)(C)C)c(F)c2)cc1 (stereo not drawn) [Example 36, N-(3-fluoro-4-(trimethylsilyl)phenyl)-2-(4-(methoxymethyl)phenyl)-2-(((6-oxopyrimidin-1(6H)-yl)acetyl)amino)acetamide]
RORγt [1]
  inhibition at 1 µM: 96.2%
RORγt [2]
  inhibition at 1 µM: 98.2%
RORγt [3]
  inhibition at 3 µM: 99.8%

## COc1ccc(C(NC(=O)C2CNC(=O)C2)C(=O)Nc2cc(F)c([Si](C)(C)C)c(F)c2)cc1 (stereo not drawn) [Example 37, N-(2-((3,5-difluoro-4-(trimethylsilyl)phenyl)amino)-1-(4-methoxyphenyl)-2-oxoethyl)-5-oxopyrrolidine-3-carboxamide]
RORγt [1]
  inhibition at 1 µM: 101%
RORγt [2]
  inhibition at 1 µM: 93.6%
RORγt [3]
  inhibition at 3 µM: 98.5%

## COCc1ccc(C(C(=O)Nc2cc(F)c([Si](C)(C)C)c(F)c2)N(C)C(=O)c2cc(O)no2)cc1 (stereo not drawn) [Example 38, N-(2-((3,5-difluoro-4-(trimethylsilyl)phenyl)amino)-1-(4-(methoxymethyl)phenyl)-2-oxoethyl)-3-hydroxy-N-methyl-1,2-oxazole-5-carboxamide]
RORγt [1]
  inhibition at 1 µM: 102%
RORγt [2]
  inhibition at 1 µM: 99.7%
RORγt [3]
  inhibition at 3 µM: 100%

## COCc1ccc(C(NC(=O)Cc2cc(O)no2)C(=O)Nc2cc(F)c([Si](C)(C)C)c(F)c2)cc1 (stereo not drawn) [Example 39, N-(3,5-difluoro-4-(trimethylsilyl)phenyl)-2-(((3-hydroxy-1,2-oxazol-5-yl)acetyl)amino)-2-(4-(methoxymethyl)phenyl)acetamide]
RORγt [1]
  inhibition at 1 µM: 103%
RORγt [2]
  inhibition at 1 µM: 99.6%
RORγt [3]
  inhibition at 3 µM: 100%

## COCc1ccc(C(NC(=O)Cn2cnccc2=O)C(=O)Nc2cc(F)c([Si](C)(C)C)c(F)c2)cc1 (stereo not drawn) [Example 40, N-(3,5-difluoro-4-(trimethylsilyl)phenyl)-2-(4-(methoxymethyl)phenyl)-2-(((6-oxopyrimidin-1(6H)-yl)acetyl)amino)acetamide]
RORγt [1]
  inhibition at 1 µM: 101%
RORγt [2]
  inhibition at 1 µM: 98.7%
RORγt [3]
  inhibition at 3 µM: 100%
